Source: patent US10278942B2 (PELOTON THERAPEUTICS, INC., priority 2015, dated 2019)

Legend:
786-O-Hif-Luc cells = assay: Luciferase Assay (HIF responsive elements reporter); settings: read-out: Mean Luciferase EC50 (nM), 786-O-Hif-Luc cells
Protocol: A pool of infected cells were then selected against 2 μg/mL of puromycin (P8833, Sigma) for 10 days followed by limited dilution to select single clones. […] Each concentration was tested in triplicate. After about 24 hours, luciferase activity was determined using ONE-Glo Luciferase Assay Reagent (E6110, Promega) following the manufacturer's recommended procedure. EC50 were calculated using Dotmatics software.

[1] = target: T1, HIF-2α HIS TAG-PASB Domain (Homo sapiens, UniProt Q99814); assay: HIF-2α Scintillation Proximity Assay (SPA); type: binding; settings: read-out: Scintillation Proximity Assay IC50
T1 construct: 100 nM HIF-2α HIS TAG-PASB Domain
Outline: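 IC50 values rest on percent inhibition, where the sample signal is scaled between high and low controls. Wells contain about 100 μL: compound dispensed as 2 μL of DMSO solution, 88 μL protein-probe mix and 10 μL of beads.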

T1 sequence (Q99814 240-350 limits assumed): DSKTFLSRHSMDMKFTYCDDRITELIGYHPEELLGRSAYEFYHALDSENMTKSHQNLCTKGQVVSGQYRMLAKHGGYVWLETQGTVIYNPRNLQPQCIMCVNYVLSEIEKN

| Compound | EC50 (786-O-Hif-Luc cells) [nM] | IC50 [1] [nM] |
| --- | --- | --- |
| N#Cc1cc(Oc2ccc3c(c2C(F)F)[C@@H](O)C(F)(F)S3(=O)=O)ccc1F [Compound 437] | 250 to 1000 | 50 to 249 |
| COCCCOc1ccc(S(=O)(=O)C(F)(F)F)c2c1CC(F)(F)C2O (centres unmarked) [Compound 608] | 250 to 1000 | < 50 |
| CC1(C)C[C@H](O)C[C@@H](c2ccc(S(=O)(=O)C(F)(F)F)c3c2CC(F)(F)[C@H]3O)C1 [Compound 549] | 50 to 249 | < 50 |
| N#Cc1c(Oc2cc(F)cc(F)c2)ccc2c1C(O)C(F)S2(=O)=O (centres unmarked) [Compound 390] | 250 to 1000 | > 1000 |
| C[S+]([O-])c1ccc(Oc2cc(F)cc(C#N)c2)c2c1[C@H](O)C(F)(F)C2 (some centres unmarked) [Compound 272] | > 1000 | > 1000 |
| O/N=C1/c2c(C(F)(F)F)ccc(OCC(F)F)c2CC1(F)F [Compound 580] | > 1000 | 250 to 1000 |
| O=S(=O)(c1ccc(Oc2cc(F)cc(F)c2)c2c1CC(O)C2)C(F)F (centres unmarked) [Compound 22] | > 1000 | 250 to 1000 |
| Cc1c(Oc2cc(F)cc(C#N)c2)ccc(S(=O)(=O)C(F)(F)F)c1Cl [Compound 144] | 250 to 1000 | < 50 |
| N#Cc1cccc(Oc2ccc(S(=O)(=O)C(F)F)c(CO)c2Br)c1 [Compound 81] | 250 to 1000 | 250 to 1000 |
| COc1cc(F)cc(Oc2ccc(S(=O)(=O)C(F)F)c3c2CC[C@H]3O)c1 [Compound 6] | 50 to 249 | < 50 |
| CC(O)c1c(S(=O)(=O)C(F)(F)F)ccc(Oc2cc(F)cc(Cl)c2)c1Br (centres unmarked) [Compound 103] | > 1000 | 250 to 1000 |
| N#Cc1cccc(Oc2ccc(S(=O)(=O)C(F)(F)F)cc2Br)c1 [Compound 117] | > 1000 | 50 to 249 |
| CO[C@H]1C[C@@H](Oc2ccc(S(=O)(=O)C(F)(F)F)c3c2CC(F)(F)[C@H]3O)C1 [Compound 715] | 50 to 249 | < 50 |
| N#Cc1c(Oc2cc(F)cc(Cl)c2)ccc2c1[C@@H](O)CS2(=O)=O [Compound 348] | 50 to 249 | < 50 |
| CC(C)(C#N)COc1ccc(S(=O)(=O)C(F)(F)F)c2c1CCC2O (centres unmarked) [Compound 609] | > 1000 | 50 to 249 |
| O=S(=O)(c1ccc(Oc2ccc(F)c(F)c2)c2c1C(O)CC2)C(F)(F)F (centres unmarked) [Compound 214] | > 1000 | 50 to 249 |

| Compound | EC50 (786-O-Hif-Luc cells) [nM] | IC50 [1] [nM] |
| --- | --- | --- |
| O=S1(=O)c2ccc(Oc3cncc(F)c3)c(Br)c2[C@@H](O)C1(F)F [Compound 423] | 50 to 249 | 250 to 1000 |
| O=S(=O)(c1ccc(Oc2cc(F)cc(Cl)c2)c(Cl)c1CNCCF)C(F)(F)F [Compound 114] | > 1000 | > 1000 |
| CCOc1ccc(S(=O)(=O)C(F)(F)F)c2c1CC(F)(F)C2O (centres unmarked) [Compound 591] | 250 to 1000 | 250 to 1000 |
| CS(=O)(=O)c1ccc(Oc2cc(C#N)cc(C(F)F)c2)c2c1C(O)CC2 (centres unmarked) [Compound 249] | > 1000 | 250 to 1000 |
| CC(C)Oc1ccc(S(=O)(=O)C(F)(F)F)c2c1CC(F)(F)C2O (centres unmarked) [Compound 593] | 50 to 249 | < 50 |
| CCCOc1ccc(S(=O)(=O)C(F)(F)F)c2c1CC(F)(F)C2O (centres unmarked) [Compound 584] | < 50 | 50 to 249 |
| Cc1c(Oc2cc(F)cc(Cl)c2)ccc(S(=O)(=O)C(F)(F)F)c1Br [Compound 140] | > 1000 | < 50 |
| COc1cc(F)cc(Oc2ccc3c(c2Br)[C@@H](O)C(F)(F)S3(=O)=O)c1 [Compound 426] | 250 to 1000 | 50 to 249 |
| N#Cc1cc(F)cc(Oc2ccc3c(c2F)C(O)C(F)(F)S3(=O)=O)c1 (centres unmarked) [Compound 434] | 250 to 1000 | 250 to 1000 |
| N#Cc1cc(F)cc(Oc2ccc(S(=O)(=O)C3CCC3)c3c2CC(F)(F)[C@H]3O)c1 [Compound 209] | > 1000 | 250 to 1000 |
| O/N=C1/c2c(C(F)(F)F)ccc(OC3CC(F)(F)C3)c2CC1(F)F [Compound 672] | > 1000 | 50 to 249 |
| O=S(=O)(c1ccc(Oc2cc(F)c(F)c3[nH]ncc23)c2c1C(O)C(F)(F)C2)C(F)(F)F (centres unmarked) [Compound 261] | > 1000 | 250 to 1000 |
| O=S(=O)(c1ccc(Oc2ccc(F)cc2)c2c1C(O)CC2)C(F)(F)F (centres unmarked) [Compound 212] | > 1000 | 250 to 1000 |
| O=S(=O)(c1ccc(Oc2cc(Cl)c[n+]([O-])c2)c2c1[C@H](O)C(F)(F)C2)C(F)(F)F [Compound 260] | 50 to 249 | 50 to 249 |
| Cc1cc(Oc2cc(F)cc(C#N)c2)c2c(c1S(C)(=O)=O)C(O)C(F)(F)C2 (centres unmarked) [Compound 213] | 250 to 1000 | 250 to 1000 |
